Laboratory results from patent US20240315989A1 (priority 2021, published 2024).
Read-outs that look alike come from different tables or passages of the source.

Key:
σ1 site [1] = target: T1, σ1 site (Homo sapiens, UniProt Q99720); details: read-out: Affinity for σ1 Site (Ki or KD values); cited from earlier work
σ1 site [2] = target: T1, σ1 site; details: cited from earlier work
SARS-CoV-2 [3] = details: A549-ACE2; cited from earlier work
severe COVID-19 = assay: AP-HP observational multicenter study: FIASMA medication use and intubation or death in severe COVID-19; type: in vivo, human; details: for Number of events/Number of patients N/N: each FIASMA class and molecule at baseline, severe COVID-19 (N = 2,846); for Number of events/Number of patients (%): each FIASMA class and molecule; for Univariate Cox regression in 1:2 ratio matched analytic samples HR: vs matched control groups
Protocol: COVID-19 was ascertained by a positive reverse-transcriptase-polymerase-chain-reaction (RT-PCR) test on nasopharyngeal or oropharyngeal swab specimens. Severe COVID-19 was defined as having at least one of the following criteria at hospital admission: respiratory rate >24 breaths/min or <12 breaths/min, resting peripheral capillary oxygen saturation in ambient air <90%, temperature >40° C., systolic blood pressure <100 mm Hg, or high lactate levels >2 mmol/L.^22
AP-HP Health Data Warehouse (‘Entrepôt de Données de Santé (EDS)’) contains all available clinical data on all inpatient visits for COVID-19 to 36 Greater Paris university hospitals. The data included patient demographic characteristics, vital signs, laboratory tests, and RT-PCR test results, medication administration data during the hospitalization for COVID-19, current diagnoses, discharge disposition, ventilator use data, and death certificates.
We obtained the following data for each patient at the time of the hospitalization: sex; age, which was categorized into four classes based on the OpenSAFELY study results^23 (i.e., 18-50, 51-70, 71-80, and 81+); hospital, which was categorized into four classes following the administrative clustering of AP-HP hospitals in Paris and its suburbs based on their geographical location (i.e., AP-HP Centre—Paris University, Henri Mondor University Hospitals and at home hospitalization; AP-HP Nord and Hôpitaux Universitaires Paris Seine-Saint-Denis; AP-HP Paris Saclay University; and AP-HP Sorbonne University); obesity, which was defined as having a body mass index higher than 30 kg/m^2 or an International Statistical Classification of Diseases and Related Health Problems (ICD-10) diagnosis code for obesity (E66.0, E66.1, E66.2, E66.8, and E66.9); self-reported current smoking status; and any medication prescribed according to compassionate use or as part of a clinical trial (e.g., hydroxychloroquine, azithromycin, remdesivir, tocilizumab, sarilumab, or dexamethasone). To take into account possible confounding by indication bias for FIASMA medications, we recorded whether patients had any current diagnosis, based on ICD-10 diagnosis codes recorded during the visit, of neoplasms and diseases of the blood (C00-D89); mental disorders (F01-F99); diseases of the nervous system (G00-G99); cardiovascular disorders (I00-I99); respiratory disorders (J00-J99); digestive disorders (K00-K95); dermatological disorders (L00-L99); diseases of the musculoskeletal system (M00-M99); diseases of the genitourinary system (N00-N99); endocrine disorders (E00-E89); and eye-ear-nose-throat disorders (H00-H95).
FIASMA medication use was defined as receiving at least one FIASMA medication within the first 24 hours of hospital admission. To minimize potential confounding effects of late prescription of FIASMA medications, patients who initiated an FIASMA medication more than 24 hours after hospital admission were excluded from the analyses. Patients who received at study baseline an antipsychotic or a benzodiazepine while being hospitalized in an intensive care unit, possibly as an aid to oral intubation, were also excluded.
Study baseline was defined as the date of hospital admission for COVID-19. The primary end point was the occurrence of intubation and/or death. For patients who died after intubation, the timing of the primary end point was defined as the time of intubation.
We calculated frequencies of all baseline characteristics described above in patients receiving or not receiving an FIASMA medication and compared them using standardized mean differences (SMD). SMD are useful to evaluate between-group differences in baseline characteristic variables independently of their unit of measurement (i.e., for both continuous and categorical variables^26-28). We considered SMD greater than 0.1 as reflecting significant differences, a threshold recommended for declaring imbalance.^27

SARS-CoV-2 infection = assay: Retrospective cohort (BJC Healthcare): antidepressant exposure and ED or hospital encounter within 30 days; type: in vivo, human; details: for ED or hospital encounter within 30 days, %: share of exposed outpatients with an encounter after a positive SARS-CoV-2 test; for Unadjusted Odds Ratio, ED or hospital encounter within 30 days / Adjusted Odds Ratio, ED or hospital encounter within 30 days: vs No Antidepressant (Ref); for Unadjusted Odds Ratio, ED or hospital encounter within 30 days: logistic regression; for Adjusted Odds Ratio, ED or hospital encounter within 30 days: multivariable logistic regression, complete cases
SARS-CoV-2 [4] = details: cited from earlier work
pp-VSV-SARS-CoV-2 spike = details: cited from earlier work
COVID-19 = details: p<0.05; cited from earlier work
SARS-CoV-2 [5] = details: cited from earlier work; remark: listed apart in the source
[6] = one-compartment model; cited from earlier work
sigma-1 receptors = sigma-1 receptors (Rattus norvegicus, UniProt Q9R0C9); details: cited from earlier work
sigma-1 receptors, sequence (Q9R0C9 whole entry): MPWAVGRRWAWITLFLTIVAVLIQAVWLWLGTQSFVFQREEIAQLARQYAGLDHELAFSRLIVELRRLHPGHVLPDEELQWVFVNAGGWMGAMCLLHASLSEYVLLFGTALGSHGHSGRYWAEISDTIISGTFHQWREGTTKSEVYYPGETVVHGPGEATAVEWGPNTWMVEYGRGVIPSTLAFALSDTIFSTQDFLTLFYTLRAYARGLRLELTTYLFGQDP

[7] = vs no FIASMA medication, Table 33
[8] = paracetamol group matched to FIASMA respiratory system medication, Table 34

T1 sequence (Q99720 whole entry): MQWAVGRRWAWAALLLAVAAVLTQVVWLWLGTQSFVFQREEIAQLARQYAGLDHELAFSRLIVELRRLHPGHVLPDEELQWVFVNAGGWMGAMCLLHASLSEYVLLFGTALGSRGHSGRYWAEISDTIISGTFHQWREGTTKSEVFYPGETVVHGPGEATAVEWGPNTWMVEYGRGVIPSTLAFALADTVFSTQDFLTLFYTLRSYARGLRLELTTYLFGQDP

COc1ccc2c(c1)[C@]13CCCC[C@@H]1[C@H](C2)N(C)CC3 [Dextromethorphan]
Ki (σ1 site [1]): < 0.5 µM | Function on σ1 Site (σ1 site [2]): Agonist | SARS-CoV-2 viral replication (SARS-CoV-2 [3]): increase viral replication

OCCOCCN1CCN(C(c2ccccc2)c2ccc(Cl)cc2)CC1 (stereo not drawn) [Hydroxyzine]
Number of events/Number of patients N/N (severe COVID-19; Table 33): 11/31

CN(C)C(=O)C(CCN1CCC(O)(c2ccc(Cl)cc2)CC1)(c1ccccc1)c1ccccc1 [Loperamide]
Number of events/Number of patients N/N (severe COVID-19; Table 33): 2/9 | Number of events/Number of patients (%) (severe COVID-19; Table 33): (22.2) % | Univariate Cox regression in 1:2 ratio matched analytic samples HR (severe COVID-19; Table 33): 0.24 | Analysis weighted by inverse-probability-weighting weights HR (severe COVID-19; [7]): 0.15 | Crude Cox regression analysis HR (severe COVID-19; [7]): 0.39 | Multivariable Cox regression analysis HR (severe COVID-19; [7]): 0.25

CC(=O)Nc1ccc(O)cc1 [Paracetamol]
Number of events/Number of patients in the matched groups (%) (severe COVID-19; [8]): (21.4) % | Number of events/Number of patients in the matched groups N/N (severe COVID-19; [8]): 3/14 | Number of events/Number of patients in the matched groups (%) (severe COVID-19; paracetamol group matched to other FIASMA cardiovascular system medications, Table 34): (48.5) %

CN(C)CCC=C1c2ccccc2CCc2ccccc21 [amitriptyline]
ED or hospital encounter within 30 days, % (SARS-CoV-2 infection): 23.6% | Unadjusted Odds Ratio, ED or hospital encounter within 30 days (SARS-CoV-2 infection): 2.90 | Adjusted Odds Ratio, ED or hospital encounter within 30 days (SARS-CoV-2 infection): 1.09 | Infection with SARS-CoV-2 (SARS-CoV-2 [4]; human Caco-2 cells): prevented infection | Infection with pp-VSV-SARS-CoV-2 spike (pp-VSV-SARS-CoV-2 spike; freshly isolated nasal epithelial cells of volunteers treated with a low dose): prevented infection

CN(C)CCC[C@@]1(c2ccc(F)cc2)OCc2cc(C#N)ccc21 [escitalopram]
ED or hospital encounter within 30 days, % (SARS-CoV-2 infection): 16.2% | Infection with pp-VSV-SARS-CoV-2 spike (pp-VSV-SARS-CoV-2 spike; Vero cells): prevent infection | Risk of intubation or death because of COVID-19 (COVID-19): lower risk of intubation or death | Inhibiting SARS-CoV-2 replication at a concentration of (SARS-CoV-2 [5]): at a concentration of 0.8 μg/ml

CNCCC(Oc1ccc(C(F)(F)F)cc1)c1ccccc1 (stereo not drawn) [fluoxetine]
ED or hospital encounter within 30 days, % (SARS-CoV-2 infection): 16.2% | Function on σ1 Site (σ1 site [2]): Agonist | Entry and propagation of SARS-CoV-2 (SARS-CoV-2 [4]; Vero-E6 cell lines): efficiently inhibit entry and propagation | Infection with pp-VSV-SARS-CoV-2 spike (pp-VSV-SARS-CoV-2 spike; Vero cells): prevent infection | Risk of intubation or death because of COVID-19 (COVID-19): lower risk of intubation or death | volume of distribution [V/F] [6]: 690 L

Fc1ccc([C@@H]2CCNC[C@H]2COc2ccc3c(c2)OCO3)cc1 [paroxetine]
ED or hospital encounter within 30 days, % (SARS-CoV-2 infection): 15.1% | Unadjusted Odds Ratio, ED or hospital encounter within 30 days (SARS-CoV-2 infection): 1.67 | Adjusted Odds Ratio, ED or hospital encounter within 30 days (SARS-CoV-2 infection): 0.64 | Univariate Cox regression in 1:2 ratio matched analytic samples HR (severe COVID-19; Table 33): 0.54 | Analysis weighted by inverse-probability-weighting weights HR (severe COVID-19; [7]): 0.57 | Crude Cox regression analysis HR (severe COVID-19; [7]): 0.69 | Ki (sigma-1 receptors): 2.04 µM

CN[C@H]1CC[C@@H](c2ccc(Cl)c(Cl)c2)c2ccccc21 [sertraline]
ED or hospital encounter within 30 days, % (SARS-CoV-2 infection): 17.9% | Number of events/Number of patients N/N (severe COVID-19; Table 33): 7/21 | Number of events/Number of patients (%) (severe COVID-19; Table 33): (33.3) % | Analysis weighted by inverse-probability-weighting weights adjusted for unbalanced covariates HR (severe COVID-19; [7]): 0.82 | Crude Cox regression analysis HR (severe COVID-19; [7]): 0.58 | Multivariable Cox regression analysis HR (severe COVID-19; [7]): 0.67 | Function on σ1 Site (σ1 site [2]): Agonist
